Assay results published in patent US5770573A, “CS-1 peptidomimetics, compositions and methods of using the same” (Cytel Corporation, priority 1995, dated 1998).
Square brackets hold non-standard residues; d marks the D form. Peptide text beside a SMILES is read from it. * marks the point of attachment. PhAc = O=C(Cc1ccccc1)*

Key:
[1] = tested on: delayed-type hypersensitivity murine model; assay: Adoptive transfer delayed type hypersensitivity in mice (oxazolone); type: in vivo, mouse
Description: An adoptive transfer delayed-type hypersensitivity murine model has been developed using splenic T cells primed to oxazolone. This model is described in Elices et al., Clin. Exp. Rheum., 11 (Suppl. 8):577-580 (1993), whose procedures were followed here.
Thus, BALB/c mice were shaved on the belly and painted (50 μl on the belly and 5 μl on each paw) with three percent oxazolone in acetone/olive oil (4:1) at days zero and 1. At day 5, the mice were sacrificed, their spleens removed, and splenic T cells were obtained via nylon wool columns.
Normal saline or saline containing 25×10^6 /animal of the oxazolone-immune T cells were separately injected into naive mice. The mice were then challenged by painting 10 μl of 2 percent oxazolone onto one ear each. All procedures were carried out under sterile conditions and in endotoxin-free buffers.
Prior to challenge or saline injection, the mice were implanted with pumps that subcutaneously administered normal saline, normal saline containing the compound, Compound ID No. 896.52, N-phenylacetyl-Leu-Asp-Phe-D-Pro-NH2, or normal saline containing a compound with a scrambled sequence continually at 6 mg/kg/day for a 24-hour time period. The swelling diameter at the site of challenge or saline injection was measured with a microcaliper 24 hours thereafter.
An expanded study was carried out as described above except that a scrambled compound control was not used as a control for further inhibitor compounds of Table 1 with larger groups of mice. Statistical analyses were carried out versus injection of vehicle alone.

EAE in SJL/J mice = assay: Experimental autoimmune encephalomyelitis in mice; type: in vivo; details: 1 mg/mouse i.p. at days 8 and 9; versus scrambled control compound
Description: EAE was induced in female SJL/J mice (8 to 14 weeks old) by immunization on day zero with 50 μg of a compound corresponding to positions 139-151 of PLP emulsified in a 1:1 mixture of PBS and complete Freund's adjuvant (CFA). Each mouse was injected with 0.2 ml of the adjuvant emulsion subcutaneously (s.c.) at two sites in the hind flank. All mice received 10^7 killed Bordetella pertussis units in 100 μl were injected intravenously 24 to 72 hours later.
Mice were observed daily, beginning at day 8 for clinical signs of EAE, and disease was scored on a scale of 0-5 as: 0=no disease; 1=floppy tail; 2=moderate hind limb weakness; 3=paraparesis; 4 =paraplegis with moderate forelimb weakness; 5 =qualdriplegis or premoribund state.
The inhibitor compound, Compound ID No. 896.52, N-phenylacetyl-Leu-Asp-Phe-D-Pro-NH2 was administered intraperitoneally at 1 mg/mouse in 0.2 ml of incomplete Freund's adjuvant at days 8 and 9. A compound having a scrambled sequence [N-phenylacetyl-Asp-Leu-Phe-D-Pro-NH2 ] was similarly administered to serve as a control.
Summed or averaged scores for clinical signs were plotted vs. time. The area under the resulting curves was calculated between day 8 and day 35 to calculate percentage inhibition of EAE by an inhibitor compound. The percent inhibition was calculated as follows:
%Inhibition=100-(Area of inhibitor compound+control area)×100

asthmatic sheep = assay: Treatment of asthmatic sheep (Ascaris suum antigen); type: in vivo
Description: Six asthmatic sheep were treated in a double blind cross-over study. […] This study was carried out generally as described in Abraham et al., J. Clin. Invest., 93:776-787 (1994).
The inhibitor compound used here was Compound ID No. 896.52, N-phenylacetyl-Leu-Asp-Phe-D-Pro-NH2, with a control compound that comprised the previously described compound having the same residues in a scrambled sequence. The vehicle for the nebulized compounds was phosphate-buffered saline. The compounds were administered at a dose of 1 mg/kg each, twice a day for three days prior to challenge, as well as 0.5 hours prior to and four hours post challenge on day 4. Because this was a crossover study, each animal received one or the other treatment, followed by a rest and then the other treatment. Each animal therefore served as its own control.
Post challenge airway responsiveness was also assayed. Here, specific lung resistance, SRL, returned to baseline values 24 hours after challenge, however, the sheep were hyperresponsive to inhaled carbachol at that time.

Jurkat cells = assay: Binding of Jurkat cells to frozen human RA synovial sections; type: cell-based; details: 500 μg/ml
Description: Binding studies were carried out using the Jurkat T cell line and frozen RA synovial sections. […] Stimulated MOLT-4 cells behaved similarly.
The absolute value of that IC50 value is about 0.5 μmolar.

immune T cells = details: about 50 μg/ml admixed with immune T cells; cited from earlier work
[2] = tested on: rabbit cardiac allograft coronary arteries; assay: Rabbit cardiac allograft model; type: in vivo; for Expression on Coronary Arteries: ICAM-1: key: -: negative; ±: minimal; +: little; ++: moderately abundant; +++: very abundant; for Expression on Coronary Arteries: Macrophages: key: -: negative; ±: minimal; +: little; ++: moderately abundant; +++: very abundant; for Expression on Coronary Arteries: T cells: key: -: negative; ±: minimal; +: little; ++: moderately abundant; +++: very abundant; for Expression on Coronary Arteries: Total Fibronectin: key: -: negative; ±: minimal; +: little; ++: moderately abundant; +++: very abundant
From the text: New Zealand white rabbit SPF hearts were allografted into the necks of similar rabbits to assay a graft-vs-host immunorejection model and the affect of a contemplated compound on that immunoinflammatory response.
Experimental animal model New Zealand white female rabbits (Charles River Lab., Saint Laurent, Quebec), between 3.5 and 4 kg underwent heterotopic cardiac transplant following an experimental protocol previously described [Alonso et al., Am. J. Pathol., 87:415-442 (1977); Clausell et al., Circulation, 89:2768-2779 (1994)]. The animals were unselected to favor an HLA-mismatch, the host rabbits were Pasteurella-free and the donors, outbred animals. Both host and donor rabbits were fed Purina 5321-0.5 percent cholesterol diet (Research Diets Inc., New Brunswick, N.J.), a strategy that has proven useful in accelerating the process of allograft arteriopathy [Alonso et al., Am. J. Pathol., 87:415-442 (1977)]. The diet was commenced four days prior to the transplant and continued in the recipient of the transplant until the completion of the experimental period.
The technique of heterotopic cardiac transplantation has been previously described [Clausell et al., Circulation, 89:2768-2779 (1994)]. Briefly, a vertical incision was performed in the anterior aspect of the neck of the recipient rabbit and the left common carotid artery and the ipsilateral external jugular vein were isolated. The cardiac allograft was placed in the neck by anastomosing the aorta end-to-side to the recipient's carotid artery and the pulmonary end-to-side to the recipient's external jugular vein, following a total period of ischemia for the donor hearts of approximately 30 minutes. Postoperative care was in compliance with the Principles of Laboratory Animal Care formulated by the Canadian National Society for Medical Research.
Beginning the day of the transplant, the animals were randomized and treated with either scrambled compound (control group) at 1 mg/kg s.c. or the inhibitor compound at 1 mg/kg s.c. The doses of the compounds were empirically extrapolated to the in vivo model based on preliminary in vitro studies, of Table 1. No other immunosuppression therapy was administered. The grafts were monitored daily by palpation and maintained for 7 to 8 days, a previously described endpoint that was associated with myocardial rejection (impaired cardiac contractility) and development of the allograft arteriopathy in this model [Clausell et al., Circulation, 89:2768-2779 (1994)]. A total of fourteen animals were studied in the control (n=7) and treated (n=7) groups.
Preparation of the hearts The animals were sacrificed using a lethal dose of euthanol (480 mg i.v.) (MTC Pharmaceutical, Cambridge, Oreg.), host and donor hearts were removed, and the coronary arteries were perfused with saline through the aorta, followed by light fixation by perfusion with 2 percent paraformaldehyde (Sigma, St, Louis, Mo.). […] Different sections of the hearts were either saved in 10 percent formalin (BDH Inc., Toronto, ON) for light microscopy studies or immediately frozen in O.T.C. Compound Tissue Tek (Miles Inc., Elkart, In.) for specific immunohistochemistry studies.
Three different paraffin-embedded tissue sections from host and donor hearts from both control and treated rabbits were stained by the Movat pentachrome method for light microscopy. Morphometric analysis was performed using a Zeiss microscope attached to a computer-generated video analysis system (Perceptics Inc., NuVision software), as described in Clausell et al., Circulation, 89:2768-2779 (1994). The number of vessels with intimal lesions were counted in all three heart sections from each animal studied and are expressed as a percentage of the total vessel number.
In the host hearts, 999 vessels in the control group and 1054 vessels in the treated group were analyzed. In the donor hearts, 827 vessels in the control group and 617 vessels in the treated group were analyzed. […]

[3] = Loss of potency in PBS containing 10 percent mouse or human serum; details: PBS at 7.2-7.4 with 10 percent mouse or human serum; 24 hours
VLA-4 = VLA-4 (Homo sapiens, UniProt P05556+P13612); details: cited from earlier work
VLA-4, sequence (P13612 34-1032): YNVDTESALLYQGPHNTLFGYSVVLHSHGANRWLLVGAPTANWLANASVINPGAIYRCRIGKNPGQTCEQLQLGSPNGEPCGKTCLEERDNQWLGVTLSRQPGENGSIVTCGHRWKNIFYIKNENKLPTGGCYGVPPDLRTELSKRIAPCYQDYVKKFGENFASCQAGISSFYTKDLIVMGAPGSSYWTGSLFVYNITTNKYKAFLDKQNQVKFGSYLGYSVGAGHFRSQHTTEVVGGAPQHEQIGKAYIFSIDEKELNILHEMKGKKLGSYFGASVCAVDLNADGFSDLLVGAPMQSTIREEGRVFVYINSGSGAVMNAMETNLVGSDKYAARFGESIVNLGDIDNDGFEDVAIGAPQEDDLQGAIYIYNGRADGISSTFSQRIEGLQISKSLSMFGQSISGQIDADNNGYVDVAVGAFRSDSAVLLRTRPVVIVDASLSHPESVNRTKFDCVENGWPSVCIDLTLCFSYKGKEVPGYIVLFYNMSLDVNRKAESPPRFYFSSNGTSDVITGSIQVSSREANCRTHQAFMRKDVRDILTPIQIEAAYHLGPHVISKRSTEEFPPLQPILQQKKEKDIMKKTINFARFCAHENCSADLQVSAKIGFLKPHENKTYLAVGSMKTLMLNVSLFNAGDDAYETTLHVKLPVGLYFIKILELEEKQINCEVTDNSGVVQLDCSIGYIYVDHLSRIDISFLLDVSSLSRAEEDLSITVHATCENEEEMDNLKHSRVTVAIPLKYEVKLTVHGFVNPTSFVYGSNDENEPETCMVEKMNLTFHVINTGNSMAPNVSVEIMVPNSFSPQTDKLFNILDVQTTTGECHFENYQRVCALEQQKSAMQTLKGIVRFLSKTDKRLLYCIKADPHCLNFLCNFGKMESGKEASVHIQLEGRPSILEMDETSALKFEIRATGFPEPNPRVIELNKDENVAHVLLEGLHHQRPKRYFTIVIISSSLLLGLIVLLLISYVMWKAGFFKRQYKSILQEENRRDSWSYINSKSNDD
VLA-4, sequence (P05556 21-798): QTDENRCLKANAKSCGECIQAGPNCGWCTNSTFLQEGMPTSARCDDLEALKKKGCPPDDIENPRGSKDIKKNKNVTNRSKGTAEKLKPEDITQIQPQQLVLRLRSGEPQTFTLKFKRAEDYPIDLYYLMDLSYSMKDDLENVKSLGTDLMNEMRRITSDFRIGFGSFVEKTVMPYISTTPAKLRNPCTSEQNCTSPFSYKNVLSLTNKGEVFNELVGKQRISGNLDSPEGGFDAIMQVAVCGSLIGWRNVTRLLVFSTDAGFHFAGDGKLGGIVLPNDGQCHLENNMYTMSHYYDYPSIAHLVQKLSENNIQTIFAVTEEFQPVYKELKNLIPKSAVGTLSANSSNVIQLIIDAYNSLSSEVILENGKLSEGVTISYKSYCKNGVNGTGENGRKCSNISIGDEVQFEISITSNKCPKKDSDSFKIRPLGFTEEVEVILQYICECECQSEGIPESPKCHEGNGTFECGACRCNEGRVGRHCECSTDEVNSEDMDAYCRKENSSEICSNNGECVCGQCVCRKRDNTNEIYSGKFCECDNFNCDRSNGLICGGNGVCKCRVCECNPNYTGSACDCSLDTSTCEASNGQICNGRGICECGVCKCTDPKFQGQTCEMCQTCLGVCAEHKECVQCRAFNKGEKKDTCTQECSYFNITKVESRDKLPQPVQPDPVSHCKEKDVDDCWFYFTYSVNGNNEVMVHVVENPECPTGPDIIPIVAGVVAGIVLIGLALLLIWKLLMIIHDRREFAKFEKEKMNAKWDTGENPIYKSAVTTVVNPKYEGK

Q: With `CC(C)C[C@H](NC(=O)Cc1ccccc1)C(=O)N[C@@H](CC(=O)O)C(=O)N[C@@H](Cc1ccccc1)C(=O)N1CCC[C@@H]1C(N)=O` [896.52] (PhAc-LDF[dP]-NH2) as the molecule, how does the “swelling at challenge site (initial study, FIG. 5)” value ([1]; 6 mg/kg/day s.c. by implanted pump for 24 hours, versus saline) read?
A: reduced this type of CS-1/VLA-4-mediated immunoinflammation

Q: And the “Percent Inhibition of post-challenge swelling” value ([1]; expanded study, versus vehicle alone, 6 mg/kg/day s.c. pump, 24 hours)?
A: 36%

Q: And the “clinical signs of EAE (FIG. 6)” value (EAE in SJL/J mice)?
A: marked improvement in clinical signs

Q: What about the “PC400, carbachol dosage to increase SRL 4-fold” value (asthmatic sheep; 24 hours after challenge, pre-challenge about 20-23 BU) of the same molecule?
A: about 27 BU

Q: And the “specific lung resistance SRL after challenge (FIG. 7)” value (asthmatic sheep; nebulized 1 mg/kg twice a day, versus control compound)?
A: less of a change from baseline specific lung resistance (SRL)

Q: Which “inhibition of Jurkat cell adhesion to RA synovial sections” value (Jurkat cells) does the source give for `CC[C@H](C)[C@H](NC(=O)[C@H](CCC(=O)O)NC(=O)[C@@H]1CCCN1C(=O)CN)C(=O)N[C@@H](CC(C)C)C(=O)N[C@@H](CC(=O)O)C(=O)N[C@H](C(=O)N1CCC[C@H]1C(=O)N[C@@H](CO)C(=O)N[C@H](C(=O)O)[C@@H](C)O)C(C)C` [Compound ID No. 872.01, GPEILDVPST] (H-GPEILDVPST-OH) here?
A: could be inhibited

Q: And the “abrogation of transferred immune response” value (immune T cells)?
A: could abrogate a transferred immune response

Q: Which “Expression on Coronary Arteries: ICAM-1” value ([2]; 1 mg/kg s.c., 7 to 8 days) does the source give for `CC(C)C[C@H](NC(=O)Cc1ccccc1)C(=O)N[C@@H](CC(=O)O)C(=O)N[C@@H](Cc1ccccc1)C(=O)N1CCC[C@@H]1C(N)=O` [Compound ID No. 896.52, N-phenylacetyl-Leu-Asp-Phe-D-Pro-NH2] (PhAc-LDF[dP]-NH2) here?
A: ±

Q: What about the “Expression on Coronary Arteries: Macrophages” value ([2]; 1 mg/kg s.c., 7 to 8 days) of the same molecule?
A: ±

Q: What about the “Expression on Coronary Arteries: T cells” value ([2]; 1 mg/kg s.c., 7 to 8 days) of the same molecule?
A: ±

Q: What about the “Expression on Coronary Arteries: Total Fibronectin” value ([2]; 1 mg/kg s.c., 7 to 8 days) of the same molecule?
A: ±

Q: What about the “Expression on Coronary Arteries: VCAM-1” value ([2]; 1 mg/kg s.c., 7 to 8 days) of the same molecule?
A: ±

Q: And the “Expression on Coronary Arteries: MHC Class II” value ([2]; 1 mg/kg s.c., 7 to 8 days, immunoperoxidase score)?
A: ±

Q: And the “Vessel Intimal Thickening: Percent of Vessels” value ([2]; donor hearts, 1 mg/kg s.c.)?
A: 35%

Q: And the “Vessel Intimal Thickening: Severity (Percent of Vessel area)” value ([2]; donor hearts, 1 mg/kg s.c.)?
A: 16%

Q: And the “Baseline (rabbit own host heart) of incidence” value ([2]; host heart)?
A: 12%

Q: And the “Baseline (rabbit own host heart) of severity” value ([2]; host heart)?
A: 12%

Q: And the “loss of potency in serum” value [3]?
A: no loss of potency

Q: With Leu-Asp-Val [LDV] as the molecule, how does the “affinity of VLA-4 binding relative to native CS-1 25-mer” value (VLA-4) read?
A: at least two orders of magnitude lower affinity
